Source: ChEMBL document CHEMBL4811258, “Potent Antimalarials with Development Potential Identified by Structure-Guided Computational Optimization of a Pyrrole-Based Dihydroorotate Dehydrogenase Inhibitor Series” (J Med Chem, 2021)
pEC50, pIC50: −log10 of the molar value.

Assays:
[1] = Inhibition of Plasmodium falciparum DHODH expressed in Escherichia coli BL21-DE3 using L-dihydroorotate as substrate by steady-state DCIP method
Plasmodium falciparum [2] = system: Plasmodium falciparum
Plasmodium falciparum [3] = test: microbe, parasite or virus in culture; conditions: 3D7, 72 h

Row | SMILES | pIC50 [1] | pEC50 (Plasmodium falciparum [2]) | pEC50 (Plasmodium falciparum [3])
1 | Cc1[nH]c(C(=O)NC(C)c2cn[nH]c2)c(C)c1Cc1ccc(C(F)(F)F)nc1 (stereo in doubt; form 2) | 4.96 | 6.72 | –
2 | Cc1c(Cc2ccc(C(F)(F)F)nc2)c[nH]c1C(=O)NC1COCC1O (stereo not drawn) | 4.21 | – | 5.19
3 | Cc1c(Cc2ccc(C(F)(F)F)nc2)c[nH]c1C(=O)NC(C)c1cnn(C)c1 (stereo in doubt; form 2) | – | 6.46 | –
4 | Cc1c(C2(c3ccc(C(F)(F)F)nc3)CC2)c[nH]c1C(=O)NC(C)c1cn[nH]c1 (stereo in doubt; form 1) | – | 5.89 | –
5 | CNC(=O)c1cc(C(C)NC(=O)c2[nH]cc(C3(c4ccc(C(F)(F)F)nc4)CC3)c2C)n[nH]1 (stereo in doubt; form 2) | 4.26 | 7.36 | –
6 | Cc1[nH]c(C(=O)NC(C)c2cnn(C)c2)c(C)c1Cc1ccc(C(F)(F)F)nc1 (stereo in doubt; form 1) | < 4.52 | < 5.00 | –
7 | Cc1c(-c2c[nH]c3nc(C(F)(F)F)ccc23)c[nH]c1C(=O)NC(C)c1nc[nH]n1 (stereo in doubt; form 1) | 6.29 | 7.28 | –
8 | Cc1c(Cc2ccc(C(F)(F)F)nc2)c[nH]c1C(=O)NC(C)c1ncn(C)n1 (racemic) | 5.40 | – | 4.89
9 | Cc1c(-c2c[nH]c3cc(C(F)(F)F)ccc23)c[nH]c1C(=O)NC1CC1 | 5.80 | – | 6.72
10 | COC1COCC1NC(=O)c1[nH]cc(Cc2ccc(C(F)(F)F)nc2)c1C (stereo not drawn) | 4.77 | – | 5.96
11 | Cc1cc(C(C)NC(=O)c2[nH]c(C)c(Cc3ccc(C(F)(F)F)nc3)c2C)no1 (stereo in doubt; form 2) | 4.28 | < 6.00 | –
12 | Cc1c(Cc2ccc(S(=O)(=O)N(C)C)cc2)c[nH]c1C(=O)NC1CC1 | 5.82 | – | 6.15
13 | Cc1cc(C(C)NC(=O)c2[nH]cc(Cc3ccc(C(F)(F)F)nc3)c2C)no1 (stereo in doubt; form 2) | – | 6.35 | –
14 | Cc1c(-c2n[nH]c3nc(C(F)(F)F)ccc23)c[nH]c1C(=O)NCC(F)(F)F | 5.41 | – | < 5.00
15 | Cc1cc(C(C)NC(=O)c2[nH]c(C)c(Cc3ccc(C(F)(F)F)nc3)c2C#N)no1 (stereo in doubt; form 1) | 5.49 | 5.74 | –
16 | Cc1c(C2(c3ccc(C(F)(F)F)nc3)CC2)c[nH]c1C(=O)NC(C)c1cn[nH]c1 (stereo in doubt; form 2) | – | 8.92 | –
17 | CNC(=O)c1c(Cc2ccc(C(F)(F)F)nc2)c[nH]c1C(=O)NC1CC1 | 4.80 | – | 5.47
18 | Cc1c(-c2c[nH]c3cc(C(F)(F)F)ccc23)c[nH]c1C(=O)N1CC(F)(F)C1 | 4.80 | – | 6.21
19 | Cc1cc(C(C)NC(=O)c2[nH]cc(-c3c[nH]c4cc(C(F)(F)F)ccc34)c2C)no1 (stereo in doubt; form 1) | < 4.00 | < 6.00 | –
20 | Cc1c(-c2n[nH]c3cc(C(F)(F)F)ccc23)c[nH]c1C(=O)N1CC(F)(F)C1 | 5.44 | – | 6.32
21 | Cc1c(C2(c3ccc(C(F)(F)F)cc3F)CC2)c[nH]c1C(=O)NC(C)c1nc[nH]n1 (stereo in doubt; form 2) | < 4.00 | 6.39 | –
22 | Cc1c(Cc2ccc(C(F)(F)F)nc2)c[nH]c1C(=O)NC1COC1 | 6.96 | – | 7.13

Row | SMILES | pIC50 [1] | pEC50 (Plasmodium falciparum [2]) | pEC50 (Plasmodium falciparum [3])
23 | Cc1c(-c2n[nH]c3cc(C(F)(F)F)ccc23)c[nH]c1C(=O)NCC(F)(F)F | 4.66 | – | 6.21
24 | Cc1c(C2(c3ccc(C(F)(F)F)nc3)CC2)c[nH]c1C(=O)NC(C)c1cc(C(N)=O)[nH]n1 (stereo in doubt; form 2) | 4.24 | 8.03 | –
25 | Cc1c(C2(c3ccc(C(F)(F)F)cc3F)CC2)c[nH]c1C(=O)NC(C)c1nc[nH]n1 (stereo in doubt; form 1) | 5.92 | 4.92 | –
26 | Cc1cc(C(C)NC(=O)c2[nH]cc(-c3n[nH]c4cc(C(F)(F)F)ccc34)c2C)no1 (stereo in doubt; form 1) | < 4.00 | < 5.00 | –
27 | Cc1cc(C(C)NC(=O)c2[nH]cc(C3(c4ccc(C(F)(F)F)nc4)CC3)c2C)no1 (stereo in doubt; form 2) | 4.10 | 8.92 | –
28 | Cc1c(C2(c3ccc(C(F)(F)F)nc3)CC2)c[nH]c1C(=O)NC(C)c1cc(C#N)[nH]n1 (stereo in doubt; form 1) | – | – | 5.77
29 | Cc1c(-c2c[nH]c3nc(C(F)(F)F)ccc23)c[nH]c1C(=O)NC(C)c1nc[nH]n1 (stereo in doubt; form 2) | 4.60 | 5.70 | –
30 | NC(=O)c1c(Cc2ccc(C(F)(F)F)nc2)c[nH]c1C(=O)NC1CC1 | 5.31 | – | 5.68
31 | Cc1c(Cc2ccc(C(F)(F)F)nc2)c[nH]c1C(=O)NC(C)c1cn[nH]c1 (stereo in doubt; form 2) | 5.19 | 6.43 | –
32 | Cc1c(C2(c3ccc(C(F)(F)F)c(F)c3)CC2)c[nH]c1C(=O)NC(C)c1nc[nH]n1 (stereo in doubt; form 2) | 4.47 | 5.27 | –
33 | Cc1c(C(=O)NC(C)c2nc[nH]n2)[nH]c(Cl)c1Cc1ccc(C(F)(F)F)nc1 (stereo in doubt; form 3) | 4.19 | – | –
34 | CNC(=O)[C@@H](C)NC(=O)c1[nH]cc(Cc2ccc(C(F)(F)F)nc2)c1C | 4.41 | – | 5.05
35 | Cc1c(Cc2ccc(C(F)(F)F)nc2C#N)c[nH]c1C(=O)NC(C)c1nc[nH]n1 (racemic) | 5.72 | – | 5.64
36 | Cc1c(Cc2cccc(F)c2C#N)c[nH]c1C(=O)NC(C)c1nc[nH]n1 (racemic) | 6.32 | – | 5.96
37 | Cc1c(-c2n[nH]c3cc(C(F)(F)F)ccc23)c[nH]c1C(=O)NC(C)c1cc(C(N)=O)[nH]n1 (racemic) | 4.49 | – | 6.30
38 | Cc1c(Cc2ccc(C(F)(F)F)cc2F)c[nH]c1C(=O)NC(C)c1nc[nH]n1 (stereo in doubt; form 2) | 4.44 | 5.24 | –
39 | Cc1c(Cc2ccc(C(F)(F)F)nc2)c[nH]c1C(=O)NC(C)c1nc[nH]n1 (stereo in doubt; form 2) | < 4.00 | 4.80 | –
40 | Cc1cc(C(C)NC(=O)c2[nH]cc(Cc3ccc(C(F)(F)F)cc3)c2C)no1 (stereo in doubt; form 2) | 4.32 | 5.21 | –
41 | Cc1c(Cc2ccc(C(F)(F)F)nc2)c[nH]c1C(=O)N[C@H](C)CO | 5.57 | – | 5.68
42 | Cc1c(-c2c[nH]c3cc(C(F)(F)F)ccc23)c[nH]c1C(=O)NCC(F)(F)F | 4.74 | – | 5.92
43 | Cc1c(-c2c[nH]c3nc(C(F)(F)F)ccc23)c[nH]c1C(=O)NCC(F)(F)F | 6.30 | – | 7.30
44 | Cc1c(-c2c[nH]c3nc(C(F)(F)F)ccc23)c[nH]c1C(=O)N1CC(F)(F)C1 | 6.96 | – | 7.49

Row | SMILES | pIC50 [1] | pEC50 (Plasmodium falciparum [2]) | pEC50 (Plasmodium falciparum [3])
45 | Cc1c(C(=O)NC(C)c2nc[nH]n2)[nH]c(Cl)c1Cc1ccc(C(F)(F)F)nc1 (stereo in doubt; form 1) | < 4.00 | < 5.00 | –
46 | Cc1c(C2(c3ccc(C(F)F)nc3)CC2)c[nH]c1C(=O)NC(C)c1nc[nH]n1 (stereo in doubt; form 2) | < 4.52 | < 4.70 | –
47 | COC(=O)c1c(Cc2ccc(C(F)(F)F)nc2)c[nH]c1C(=O)NC1CC1 | 5.19 | – | 5.85
48 | Cc1[nH]c(C(=O)NC(C)c2nc[nH]n2)c(C)c1Cc1ccc(C(F)(F)F)nc1 (stereo in doubt; form 2) | 4.37 | 6.12 | –
49 | Cc1c(Cc2ccc(C(F)(F)F)nc2)c[nH]c1C(=O)NCc1cc[nH]n1 | 4.77 | – | 5.85
50 | Cc1[nH]c(C(=O)N[C@H](C)c2cn[nH]c2)c(C#N)c1Cc1ccc(C(F)(F)F)nc1 (stereo in doubt; form 1) | 4.38 | < 6.00 | –
51 | Cc1c(-c2n[nH]c3nc(C(F)(F)F)ccc23)c[nH]c1C(=O)N1CC(F)(F)C1 | 5.68 | – | < 5.00
52 | Cc1c(C2(c3ccc(C(F)F)nc3)CC2)c[nH]c1C(=O)NC(C)c1nc[nH]n1 (stereo in doubt; form 1) | 6.82 | 6.74 | –
53 | Cc1c(Cc2ccc(F)c(F)c2)c[nH]c1C(=O)NC(C)c1nc[nH]n1 (stereo in doubt; form 1) | 6.40 | 6.14 | –
54 | Cc1cc(C(C)NC(=O)c2[nH]cc(Cc3ccc(C(F)(F)F)nc3)c2C)n[nH]1 (stereo in doubt; form 2) | 4.17 | < 5.00 | –
55 | Cc1c(-c2n[nH]c3cc(C(F)(F)F)ccc23)c[nH]c1C(=O)NC1CC1 | 5.39 | – | 6.60
56 | Cc1c(Cc2ccc(C(F)(F)F)nc2)c[nH]c1C(=O)NC(C)c1cc(C#N)[nH]n1 (stereo in doubt; form 2) | 4.27 | 5.21 | –
57 | CNC(=O)c1cc(C(C)NC(=O)c2[nH]cc(Cc3ccc(C(F)(F)F)nc3)c2C)n[nH]1 (stereo in doubt; form 2) | 4.05 | 5.32 | –
58 | CNC(=O)c1cc(C(C)NC(=O)c2[nH]cc(C3(c4ccc(C(F)(F)F)nc4)CC3)c2C)n[nH]1 (stereo in doubt; form 1) | 6.41 | 6.28 | –
59 | Cc1c(Cc2ccc(C(F)(F)F)nc2)c[nH]c1C(=O)NC(C)c1cc(C(N)=O)[nH]n1 (stereo in doubt; form 2) | 4.48 | 4.80 | –
60 | Cc1c(C2(c3cccc(C(F)(F)F)c3)CC2)c[nH]c1C(=O)NC(C)c1nc[nH]n1 (stereo in doubt; form 2) | < 4.52 | 5.55 | –
61 | Cc1c(Cc2ccc(F)c(F)c2)c[nH]c1C(=O)NC(C)c1nc[nH]n1 (stereo in doubt; form 2) | < 4.00 | < 5.00 | –
62 | Cc1c(Cc2ccc(F)c3ccncc23)c[nH]c1C(=O)NC(C)c1nc[nH]n1 (stereo in doubt; form 2) | 4.64 | 5.64 | –
63 | Cc1cc(C(C)NC(=O)c2[nH]cc(C3(c4ccc(C(F)(F)F)nc4)CC3)c2C)n[nH]1 (stereo in doubt; form 1) | – | – | 5.48
64 | Cc1c(Cc2ccc(C(F)(F)F)nc2)c[nH]c1C(=O)N[C@H](C)C(N)=O | < 4.00 | – | < 5.00
65 | CNC(=O)c1cc(C(C)NC(=O)c2[nH]cc(Cc3ccc(C(F)(F)F)nc3)c2C)n[nH]1 (stereo in doubt; form 1) | 6.00 | 6.77 | –
